# From US9446039B2, “Aminoheteroaryl compounds as MTH1 inhibitors” (CEMM—FORSCHUNGSZENTRUM FÜR MOLEKULARE MEDIZIN GMBH, priority 2012, dated 2016)
# Experiments:
# Format in all cases: binding
# [1] = target: T1, SW480 colon carcinoma cells lysate proteins (Homo sapiens, UniProt P02533); details: PreyGene KRT14
# T1 sequence (P02533 1-472): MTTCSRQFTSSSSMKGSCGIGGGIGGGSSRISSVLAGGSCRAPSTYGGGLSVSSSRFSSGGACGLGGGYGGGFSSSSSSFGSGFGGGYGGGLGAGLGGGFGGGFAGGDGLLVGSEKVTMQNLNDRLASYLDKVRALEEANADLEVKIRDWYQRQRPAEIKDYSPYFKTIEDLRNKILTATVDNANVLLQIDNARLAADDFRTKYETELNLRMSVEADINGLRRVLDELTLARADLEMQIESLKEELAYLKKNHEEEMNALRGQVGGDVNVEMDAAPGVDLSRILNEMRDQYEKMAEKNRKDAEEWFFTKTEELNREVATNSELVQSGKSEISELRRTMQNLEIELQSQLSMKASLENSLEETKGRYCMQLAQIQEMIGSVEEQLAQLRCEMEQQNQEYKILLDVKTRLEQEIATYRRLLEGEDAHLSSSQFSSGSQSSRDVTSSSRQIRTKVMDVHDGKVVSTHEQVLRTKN
# [2] = target: SW480 colon carcinoma cells lysate proteins (Homo sapiens, UniProt P38646); details: PreyGene HSPA9
# [3] = target: T2, SW480 colon carcinoma cells lysate proteins (Homo sapiens, UniProt P68402); details: PreyGene PAFAH1B2; SW480 cells
# T2 sequence (P68402 1-229): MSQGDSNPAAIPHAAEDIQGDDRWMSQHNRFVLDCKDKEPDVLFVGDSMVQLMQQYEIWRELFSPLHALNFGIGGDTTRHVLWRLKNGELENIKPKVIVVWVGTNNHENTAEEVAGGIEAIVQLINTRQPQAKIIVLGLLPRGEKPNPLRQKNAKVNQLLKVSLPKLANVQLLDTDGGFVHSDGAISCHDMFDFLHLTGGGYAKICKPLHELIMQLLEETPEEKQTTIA
# [4] = target: SW480 colon carcinoma cells lysate proteins (Homo sapiens, UniProt P83731); details: PreyGene RPL24; SW480 cells
# [5] = target: T3, SW480 colon carcinoma cells lysate proteins (Homo sapiens, UniProt Q14444); details: PreyGene CAPRIN1
# T3 sequence (Q14444 1-709): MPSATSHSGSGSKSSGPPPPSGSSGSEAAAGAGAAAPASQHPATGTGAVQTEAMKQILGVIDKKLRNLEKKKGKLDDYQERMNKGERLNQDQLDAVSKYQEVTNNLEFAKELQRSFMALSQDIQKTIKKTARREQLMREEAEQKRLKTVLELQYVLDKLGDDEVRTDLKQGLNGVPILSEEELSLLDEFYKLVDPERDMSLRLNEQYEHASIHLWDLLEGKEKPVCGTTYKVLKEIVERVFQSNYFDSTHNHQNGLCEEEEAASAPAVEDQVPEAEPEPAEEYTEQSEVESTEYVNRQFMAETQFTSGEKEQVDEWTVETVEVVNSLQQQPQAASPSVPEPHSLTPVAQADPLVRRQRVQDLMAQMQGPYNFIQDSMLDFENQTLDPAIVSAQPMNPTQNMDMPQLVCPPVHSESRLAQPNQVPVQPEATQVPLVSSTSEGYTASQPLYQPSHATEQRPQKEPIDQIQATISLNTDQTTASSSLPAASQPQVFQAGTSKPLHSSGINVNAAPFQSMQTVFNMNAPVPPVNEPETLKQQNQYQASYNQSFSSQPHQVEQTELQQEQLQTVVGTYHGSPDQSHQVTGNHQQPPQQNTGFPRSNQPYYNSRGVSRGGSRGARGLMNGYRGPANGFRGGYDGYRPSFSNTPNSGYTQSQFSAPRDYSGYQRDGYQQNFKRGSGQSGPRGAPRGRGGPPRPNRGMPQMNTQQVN
# [6] = target: SW480 colon carcinoma cells lysate proteins (Homo sapiens, UniProt Q15365); details: PreyGene PCBP1; SW480 cells
# [7] = target: T4, SW480 colon carcinoma cells lysate proteins (Homo sapiens, UniProt Q15691); details: PreyGene MAPRE1
# T4 sequence (Q15691 1-268): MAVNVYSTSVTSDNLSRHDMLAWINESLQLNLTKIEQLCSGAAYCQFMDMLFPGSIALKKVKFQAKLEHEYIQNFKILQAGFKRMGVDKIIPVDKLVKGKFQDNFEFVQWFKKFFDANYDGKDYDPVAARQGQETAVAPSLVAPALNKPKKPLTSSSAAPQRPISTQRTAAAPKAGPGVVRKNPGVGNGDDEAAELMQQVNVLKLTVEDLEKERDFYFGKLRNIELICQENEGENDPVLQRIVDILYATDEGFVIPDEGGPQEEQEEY
# [8] = target: T5, SW480 colon carcinoma cells lysate proteins (Homo sapiens, UniProt Q9BVC6); details: PreyGene TMEM109; SW480 cells
# T5 sequence (Q9BVC6 34-243): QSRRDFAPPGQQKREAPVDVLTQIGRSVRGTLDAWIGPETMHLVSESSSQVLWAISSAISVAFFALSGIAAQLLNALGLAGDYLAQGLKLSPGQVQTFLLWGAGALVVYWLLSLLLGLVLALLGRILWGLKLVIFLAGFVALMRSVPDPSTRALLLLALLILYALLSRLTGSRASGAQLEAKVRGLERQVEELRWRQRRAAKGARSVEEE
# Chain of SW480 colon carcinoma cells lysate proteins (Homo sapiens, UniProt Q15365) (Q15365 whole entry): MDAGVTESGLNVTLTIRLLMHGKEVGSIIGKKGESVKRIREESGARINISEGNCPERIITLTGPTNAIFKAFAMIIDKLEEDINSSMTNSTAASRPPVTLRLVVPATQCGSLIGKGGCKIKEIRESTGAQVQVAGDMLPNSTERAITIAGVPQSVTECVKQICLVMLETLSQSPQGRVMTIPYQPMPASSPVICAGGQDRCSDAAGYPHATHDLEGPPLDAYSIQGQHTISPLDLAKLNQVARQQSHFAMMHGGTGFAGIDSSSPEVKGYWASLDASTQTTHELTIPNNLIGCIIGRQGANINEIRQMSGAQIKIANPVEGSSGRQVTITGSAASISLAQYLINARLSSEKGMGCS
# Chain of SW480 colon carcinoma cells lysate proteins (Homo sapiens, UniProt P38646) (P38646 47-679): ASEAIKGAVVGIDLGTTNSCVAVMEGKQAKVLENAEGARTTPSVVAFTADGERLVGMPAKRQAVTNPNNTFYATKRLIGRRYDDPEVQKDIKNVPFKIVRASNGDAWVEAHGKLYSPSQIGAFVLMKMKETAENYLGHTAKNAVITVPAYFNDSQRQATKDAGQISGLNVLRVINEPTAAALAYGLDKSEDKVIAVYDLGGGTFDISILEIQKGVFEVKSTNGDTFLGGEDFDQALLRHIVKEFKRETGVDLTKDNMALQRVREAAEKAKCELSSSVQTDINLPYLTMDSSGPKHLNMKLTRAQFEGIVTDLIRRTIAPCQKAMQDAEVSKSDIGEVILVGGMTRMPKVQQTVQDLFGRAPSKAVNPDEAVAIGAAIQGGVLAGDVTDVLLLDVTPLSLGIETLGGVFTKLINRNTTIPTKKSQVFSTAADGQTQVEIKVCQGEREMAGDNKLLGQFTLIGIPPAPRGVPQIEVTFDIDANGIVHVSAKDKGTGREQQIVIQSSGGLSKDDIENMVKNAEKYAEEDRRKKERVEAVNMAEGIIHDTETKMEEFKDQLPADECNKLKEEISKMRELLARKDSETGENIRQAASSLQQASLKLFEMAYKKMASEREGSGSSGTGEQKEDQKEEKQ
smiles,measurement,setting,value
C[C@H](Oc1cc(-c2cnn(C3CCNCC3)c2)cnc1N)c1c(Cl)ccc(F)c1Cl [(5)-crizotinib],AvgP,[1],0.4038
same,SC.Exp. 1-1,[1],4
same,SC.Exp. 1-2,[1],2
same,SC.Exp. 2-1,[1],0
same,SC.Exp. 2-2,[1],0
same,Sum (SC.Exp.),[1],6
same,AvgP,[2],0.3567
same,SC.Exp. 1-1,[2],2
same,SC.Exp. 1-2,[2],3
same,SC.Exp. 2-1,[2],0
same,SC.Exp. 2-2,[2],0
same,Sum (SC.Exp.),[2],5
same,AvgP,[3],0
same,SC.Exp. 1-1,[3],1
same,SC.Exp. 1-2,[3],1
same,SC.Exp. 2-1,[3],0
same,SC.Exp. 2-2,[3],0
same,SC.Exp. Sum,[3],2
same,AvgP,[4],0
same,SC.Exp. 1-1,[4],4
same,SC.Exp. 1-2,[4],4
same,SC.Exp. 2-1,[4],3
same,SC.Exp. 2-2,[4],4
same,SC.Exp. Sum,[4],15
same,AvgP,[5],0.2355
same,SC.Exp. 1-1,[5],2
same,SC.Exp. 1-2,[5],2
same,SC.Exp. 2-1,[5],0
same,SC.Exp. 2-2,[5],0
same,Sum (SC.Exp.),[5],4
same,AvgP,[6],0
same,SC.Exp. 1-1,[6],0
same,SC.Exp. 1-2,[6],1
same,SC.Exp. 2-1,[6],0
same,SC.Exp. 2-2,[6],0
same,SC.Exp. Sum,[6],1
same,AvgP,[7],0.4084
same,SC.Exp. 1-1,[7],2
same,SC.Exp. 1-2,[7],3
same,SC.Exp. 2-1,[7],0
same,SC.Exp. 2-2,[7],0
same,Sum (SC.Exp.),[7],5
same,AvgP,[8],0
same,SC.Exp. 1-1,[8],1
same,SC.Exp. 1-2,[8],1
same,SC.Exp. 2-1,[8],0
same,SC.Exp. 2-2,[8],1
same,SC.Exp. Sum,[8],3
